Patent publication US3948899A, “α-Cyanobenzylpiperazines and a process for producing the same” (Fuji Chemical Industry Co., Ltd., priority 1973, dated 1976)
Structures can show the parent of a compound that is named as a salt.

What was measured:
Assay type in all cases: in vivo, dog
[1] = system: mongrel adult dogs; assay: Effects on coronary sinus out flow (thoractomized anesthetized dogs, i.v.); details: i.v. 2.0 mg/Kg, imm.
Experimental: (§1) All experiments were conducted on male and female thoractomized mongrel adult dogs weighing about 10 Kg under anesthesia with pentobarbital sodium.
(§2) Arterial blood pressure was measured by pressure transducer (Nippon Koden MPU-0.5) connected with the cannula inserted from exposed carotid artery into aorta. Aortic blood flow was determined by means of electromagnetic flow meter (Nippon Koden MF-5) mounted at an origin of aorta. Coronary sinus out flow and coronary sinus oxygen tension were assessed by means of electromagnetic flow meter (Nippon Koden MF-5) and Po2 Macro electrode (Beckmann Moder 160-C), respectively, using Morawitz cannulization technique. Heart rate was measured by cardiotachometer (Nippon Koden RT-2) synchronized with systolic blood pressure of aorta.

[2] = system: mongrel adult dogs; assay: Effects on the work done by the left ventricle (thoractomized anesthetized dogs, i.v.)
Experimental: as §1, §2
The work done by the left ventricle is calculated according to the following equation: […]

[3] = system: mongrel adult dogs; assay: Effects on coronary sinus oxygen tension (thoractomized anesthetized dogs, i.v.)
Experimental: as §1, §2

[4] = system: mongrel adult dogs; assay: Effects on heart rate (thoractomized anesthetized dogs, i.v.)
Experimental: as §1, §2

## COc1ccc(CN2CCNCC2)c(OC)c1OC [Vastarel F, 2,3,4 -trimethoxybenzylpiperazine dihydrochloride]
[1]
  Changes(%) of basal values, coronery sinus out flow: -13.0%
[2]; i.v. 0.2 mg/Kg, 1 min
  Changes(%) of basal values, work of left ventricle: -1.0%
[2]; i.v. 0.2 mg/Kg, 5 min
  Changes(%) of basal values, work of left ventricle: -2.5%
[2]; i.v. 0.2 mg/Kg, 10 min
  Changes(%) of basal values, work of left ventricle: -1.5%
[2]; i.v. 0.2 mg/Kg, 15 min
  Changes(%) of basal values, work of left ventricle: -1.0%
[2]; i.v. 0.2 mg/Kg, 20 min
  Changes(%) of basal values, work of left ventricle: 0%
[2]; i.v. 0.2 mg/Kg, 25 min
  Changes(%) of basal values, work of left ventricle: 0%
[2]; i.v. 0.2 mg/Kg, 30 min
  Changes(%) of basal values, work of left ventricle: 0%
[2]; i.v. 0.2 mg/Kg, imm.
  Changes(%) of basal values, work of left ventricle: -2.5%
[2]; i.v. 0.6 mg/Kg, 1 min
  Changes(%) of basal values, work of left ventricle: -2.0%
[2]; i.v. 0.6 mg/Kg, 5 min
  Changes(%) of basal values, work of left ventricle: -1.5%
[2]; i.v. 0.6 mg/Kg, 10 min
  Changes(%) of basal values, work of left ventricle: -2.0%
[2]; i.v. 0.6 mg/Kg, 15 min
  Changes(%) of basal values, work of left ventricle: -2.0%
[2]; i.v. 0.6 mg/Kg, 20 min
  Changes(%) of basal values, work of left ventricle: -1.0%
[2]; i.v. 0.6 mg/Kg, 25 min
  Changes(%) of basal values, work of left ventricle: -1.5%
[2]; i.v. 0.6 mg/Kg, 30 min
  Changes(%) of basal values, work of left ventricle: 0%
[2]; i.v. 0.6 mg/Kg, imm.
  Changes(%) of basal values, work of left ventricle: -4.5%
[2]; i.v. 2.0 mg/Kg, 1 min
  Changes(%) of basal values, work of left ventricle: -35.0%
[2]; i.v. 2.0 mg/Kg, 5 min
  Changes(%) of basal values, work of left ventricle: +9.0%
[2]; i.v. 2.0 mg/Kg, 10 min
  Changes(%) of basal values, work of left ventricle: +21.5%
[2]; i.v. 2.0 mg/Kg, 15 min
  Changes(%) of basal values, work of left ventricle: +10.0%
[2]; i.v. 2.0 mg/Kg, 20 min
  Changes(%) of basal values, work of left ventricle: +4.0%
[2]; i.v. 2.0 mg/Kg, 25 min
  Changes(%) of basal values, work of left ventricle: +3.5%
[2]; i.v. 2.0 mg/Kg, 30 min
  Changes(%) of basal values, work of left ventricle: +3.0%
[2]; i.v. 2.0 mg/Kg, imm.
  Changes(%) of basal values, work of left ventricle: -90.0%
[3]; i.v. 0.2 mg/Kg, 1 min
  Changes(%) of basal values, coronary sinus oxygen tension: +1.0%
[3]; i.v. 0.2 mg/Kg, 5 min
  Changes(%) of basal values, coronary sinus oxygen tension: 0%
[3]; i.v. 0.2 mg/Kg, 10 min
  Changes(%) of basal values, coronary sinus oxygen tension: 0%
[3]; i.v. 0.2 mg/Kg, 15 min
  Changes(%) of basal values, coronary sinus oxygen tension: 0%
[3]; i.v. 0.2 mg/Kg, 20 min
  Changes(%) of basal values, coronary sinus oxygen tension: 0%
[3]; i.v. 0.2 mg/Kg, 25 min
  Changes(%) of basal values, coronary sinus oxygen tension: 0%
[3]; i.v. 0.2 mg/Kg, 30 min
  Changes(%) of basal values, coronary sinus oxygen tension: 0%
[3]; i.v. 0.2 mg/Kg, imm.
  Changes(%) of basal values, coronary sinus oxygen tension: +3.0%
[3]; i.v. 0.6 mg/Kg, 1 min
  Changes(%) of basal values, coronary sinus oxygen tension: +5.5%
[3]; i.v. 0.6 mg/Kg, 5 min
  Changes(%) of basal values, coronary sinus oxygen tension: +1.0%
[3]; i.v. 0.6 mg/Kg, 10 min
  Changes(%) of basal values, coronary sinus oxygen tension: 0%
[3]; i.v. 0.6 mg/Kg, 15 min
  Changes(%) of basal values, coronary sinus oxygen tension: 0%
[3]; i.v. 0.6 mg/Kg, 20 min
  Changes(%) of basal values, coronary sinus oxygen tension: 0%
[3]; i.v. 0.6 mg/Kg, 25 min
  Changes(%) of basal values, coronary sinus oxygen tension: 0%
[3]; i.v. 0.6 mg/Kg, 30 min
  Changes(%) of basal values, coronary sinus oxygen tension: 0%
[3]; i.v. 0.6 mg/Kg, imm.
  Changes(%) of basal values, coronary sinus oxygen tension: +9.0%
[3]; i.v. 2.0 mg/Kg, 1 min
  Changes(%) of basal values, coronary sinus oxygen tension: +1.5%
[3]; i.v. 2.0 mg/Kg, 5 min
  Changes(%) of basal values, coronary sinus oxygen tension: +2.0%
[3]; i.v. 2.0 mg/Kg, 10 min
  Changes(%) of basal values, coronary sinus oxygen tension: +5.0%
[3]; i.v. 2.0 mg/Kg, 15 min
  Changes(%) of basal values, coronary sinus oxygen tension: +5.0%
[3]; i.v. 2.0 mg/Kg, 20 min
  Changes(%) of basal values, coronary sinus oxygen tension: +3.0%
[3]; i.v. 2.0 mg/Kg, 25 min
  Changes(%) of basal values, coronary sinus oxygen tension: +0.5%
[3]; i.v. 2.0 mg/Kg, 30 min
  Changes(%) of basal values, coronary sinus oxygen tension: 0%
[3]; i.v. 2.0 mg/Kg, imm.
  Changes(%) of basal values, coronary sinus oxygen tension: +3.0%
[3]; i.v., between 5 and 20 minutes
  Increase in oxygen tension: up to 5%
[4]; i.v. 0.2 mg/Kg, 1 min
  Changes(%) of basal values, heart rate: 0%
[4]; i.v. 0.2 mg/Kg, 5 min
  Changes(%) of basal values, heart rate: -1.5%
[4]; i.v. 0.2 mg/Kg, 10 min
  Changes(%) of basal values, heart rate: -1.0%
[4]; i.v. 0.2 mg/Kg, 15 min
  Changes(%) of basal values, heart rate: 0%
[4]; i.v. 0.2 mg/Kg, 20 min
  Changes(%) of basal values, heart rate: 0%
[4]; i.v. 0.2 mg/Kg, 25 min
  Changes(%) of basal values, heart rate: 0%
[4]; i.v. 0.2 mg/Kg, 30 min
  Changes(%) of basal values, heart rate: 0%
[4]; i.v. 0.2 mg/Kg, imm.
  Changes(%) of basal values, heart rate: +1.5%
[4]; i.v. 0.6 mg/Kg, 1 min
  Changes(%) of basal values, heart rate: +0.5%
[4]; i.v. 0.6 mg/Kg, 5 min
  Changes(%) of basal values, heart rate: +0.5%
[4]; i.v. 0.6 mg/Kg, 10 min
  Changes(%) of basal values, heart rate: 0%
[4]; i.v. 0.6 mg/Kg, 15 min
  Changes(%) of basal values, heart rate: -1.0%
[4]; i.v. 0.6 mg/Kg, 20 min
  Changes(%) of basal values, heart rate: -1.0%
[4]; i.v. 0.6 mg/Kg, 25 min
  Changes(%) of basal values, heart rate: -1.0%
[4]; i.v. 0.6 mg/Kg, 30 min
  Changes(%) of basal values, heart rate: 0%
[4]; i.v. 0.6 mg/Kg, imm.
  Changes(%) of basal values, heart rate: +1.5%
[4]; i.v. 2.0 mg/Kg, 1 min
  Changes(%) of basal values, heart rate: -2.0%
[4]; i.v. 2.0 mg/Kg, 5 min
  Changes(%) of basal values, heart rate: -2.0%
[4]; i.v. 2.0 mg/Kg, 10 min
  Changes(%) of basal values, heart rate: -1.5%
[4]; i.v. 2.0 mg/Kg, 15 min
  Changes(%) of basal values, heart rate: -1.0%
[4]; i.v. 2.0 mg/Kg, 20 min
  Changes(%) of basal values, heart rate: -1.5%
[4]; i.v. 2.0 mg/Kg, 25 min
  Changes(%) of basal values, heart rate: -1.0%
[4]; i.v. 2.0 mg/Kg, 30 min
  Changes(%) of basal values, heart rate: -1.5%
[4]; i.v. 2.0 mg/Kg, imm.
  Changes(%) of basal values, heart rate: +5.5%
